PubChem BioAssay (NCI)
Values joined by “and” are separate entries in the source; they are usually repeats but may differ in a detail not shown here. Equal values may be shown once.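 Step 1: Grow cells in 96-well plates. Step 2: Expose to compound for 48 hours at 5 concentrations. Step 3: Interpolate endpoints linearly; if unreached, use highest concentration. Abbreviation: GI50, concentration required for 50% inhibition of growth. Definition used: TGI = concentration required for complete inhibition of growth.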

How the values were obtained:
Test in all cases: growth of human tumour cells (NCI), 48 h
HCC-2998 colon = test system: HCC-2998 colon
NCI-H460 lung = test system: NCI-H460 lung
COLO 205 colon = test system: COLO 205 colon
MDA-MB-435 = test system: MDA-MB-435
RXF 393 renal = test system: RXF 393 renal
OVCAR-8 ovarian = test system: OVCAR-8 ovarian
MALME-3M melanoma = test system: MALME-3M melanoma
MOLT-4 leukemia = test system: MOLT-4 leukemia
LOX IMVI melanoma = test system: LOX IMVI melanoma
EKVX NSCLC = test system: EKVX NSCLC

SMILES: O=C1OCC2=C1C(c1ccc(Cl)c(Cl)c1)c1cc3c(cc1N2CCO)OCCO3 (configuration not stated)
- GI50 (HCC-2998 colon): 0.503 µM
- TGI (HCC-2998 colon): 4.33 µM
- GI50 (NCI-H460 lung): 0.192 µM
- TGI (NCI-H460 lung): 5.77 µM
- GI50 (COLO 205 colon): 0.21 µM
- TGI (COLO 205 colon): 1.14 µM
- GI50 (MDA-MB-435): 0.102 µM
- TGI (MDA-MB-435): 0.468 µM
- GI50 (RXF 393 renal): 0.116 µM
- TGI (RXF 393 renal): 0.751 µM
- GI50 (OVCAR-8 ovarian): 0.389 µM
- TGI (OVCAR-8 ovarian): 7.24 µM
- GI50 (MALME-3M melanoma): 0.249 µM
- TGI (MALME-3M melanoma): 25.8 µM
- GI50 (MOLT-4 leukemia): 0.456 µM
- TGI (MOLT-4 leukemia): > 42.3 µM
- GI50 (LOX IMVI melanoma): 0.316 µM
- TGI (LOX IMVI melanoma): 10.8 µM
- GI50 (EKVX NSCLC): 1.23 µM
- TGI (EKVX NSCLC): > 38.6 µM

SMILES: COc1cc2c(c(OC)c1OC)-c1ccc(SC)c(=O)cc1C(NC(=O)c1ccccc1)CC2 (configuration not stated)
- TGI (HCC-2998 colon): 0.144 µM
- TGI (NCI-H460 lung): 1.62 µM
- TGI (COLO 205 colon): < 0.01 µM
- TGI (MDA-MB-435): < 0.01 µM
- TGI (RXF 393 renal): 7.88 µM
- TGI (OVCAR-8 ovarian): 24.6 µM
- TGI (MALME-3M melanoma): 32.7 µM
- TGI (MOLT-4 leukemia): 43.4 µM
- TGI (LOX IMVI melanoma): 62.2 µM
- TGI (EKVX NSCLC): > 100 µM

SMILES: O=C1NC(=O)C(N2C(=O)c3ccccc3C2=O)CC1O (configuration not stated)
- GI50 (NCI-H460 lung): > 100 µM
- TGI (NCI-H460 lung): > 100 µM
- GI50 (COLO 205 colon): > 100 µM
- TGI (COLO 205 colon): > 100 µM
- GI50 (MDA-MB-435): > 100 µM
- TGI (MDA-MB-435): > 100 µM
- GI50 (RXF 393 renal): > 100 µM
- TGI (RXF 393 renal): > 100 µM
- GI50 (OVCAR-8 ovarian): > 100 µM
- TGI (OVCAR-8 ovarian): > 100 µM
- GI50 (MALME-3M melanoma): > 100 µM
- TGI (MALME-3M melanoma): > 100 µM
- GI50 (MOLT-4 leukemia): > 100 µM
- TGI (MOLT-4 leukemia): > 100 µM
- GI50 (LOX IMVI melanoma): > 100 µM
- TGI (LOX IMVI melanoma): > 100 µM
- GI50 (EKVX NSCLC): > 100 µM
- TGI (EKVX NSCLC): > 100 µM

SMILES: O=C(NN1C(=O)CSC12CCCCC2)c1[nH]c2ccc(Br)cc2c1-c1ccccc1
- GI50 (HCC-2998 colon): 25.2 µM
- TGI (HCC-2998 colon): 70.4 µM
- GI50 (NCI-H460 lung): 20.7 µM
- TGI (NCI-H460 lung): 57.9 µM
- GI50 (COLO 205 colon): 26.9 µM
- TGI (COLO 205 colon): > 100 µM
- GI50 (MDA-MB-435): 18.8 µM
- TGI (MDA-MB-435): 48.9 µM
- GI50 (RXF 393 renal): 14.2 µM
- TGI (RXF 393 renal): 30.3 µM
- GI50 (OVCAR-8 ovarian): 16.3 µM
- TGI (OVCAR-8 ovarian): 30.1 µM
- GI50 (MALME-3M melanoma): 20.3 µM
- TGI (MALME-3M melanoma): 41.3 µM
- GI50 (MOLT-4 leukemia): 8.79 µM
- TGI (MOLT-4 leukemia): 46.9 µM
- GI50 (LOX IMVI melanoma): 22 µM
- TGI (LOX IMVI melanoma): 50.3 µM
- GI50 (EKVX NSCLC): 48.2 µM
- TGI (EKVX NSCLC): > 100 µM

SMILES: Nc1nc(OCc2ccccc2)c2[nH]cnc2n1
- GI50 (HCC-2998 colon): 46.2 µM and 56 µM
- TGI (HCC-2998 colon): 400 µM and 182 µM
- GI50 (NCI-H460 lung): 35.8 µM and 37.6 µM
- TGI (NCI-H460 lung): 400 µM and 195 µM
- GI50 (COLO 205 colon): 57 µM and 36.1 µM
- TGI (COLO 205 colon): 288 µM and 151 µM
- GI50 (MDA-MB-435): 41.1 µM and 26.9 µM
- TGI (MDA-MB-435): 143 µM
- GI50 (RXF 393 renal): 14.4 µM and 22.1 µM
- TGI (RXF 393 renal): 94.5 µM and 169 µM and 145 µM
- GI50 (OVCAR-8 ovarian): 64.8 µM and 63 µM
- TGI (OVCAR-8 ovarian): 400 µM and 492 µM
- GI50 (MALME-3M melanoma): 28 µM and 23.3 µM
- TGI (MALME-3M melanoma): 264 µM and 136 µM
- GI50 (MOLT-4 leukemia): 88.4 µM and 33.5 µM
- TGI (MOLT-4 leukemia): 200 µM and 126 µM
- GI50 (LOX IMVI melanoma): 34 µM and 26.2 µM
- TGI (LOX IMVI melanoma): 273 µM and 115 µM
- GI50 (EKVX NSCLC): 64.1 µM and 32.3 µM
- TGI (EKVX NSCLC): 307 µM and 274 µM

SMILES: COc1cc2c(cc1OCCCn1c(-c3ccccn3)nc3ccccc31)N=C[C@@H]1CCCN1C2=O
- GI50 (HCC-2998 colon): 1.13 µM
- TGI (HCC-2998 colon): 2.65 µM
- GI50 (NCI-H460 lung): 1.88 µM
- TGI (NCI-H460 lung): 4.34 µM
- GI50 (COLO 205 colon): 2.22 µM
- TGI (COLO 205 colon): 4.9 µM
- GI50 (MDA-MB-435): 1.42 µM
- TGI (MDA-MB-435): 2.91 µM
- GI50 (RXF 393 renal): 0.571 µM
- TGI (RXF 393 renal): 3.64 µM
- GI50 (OVCAR-8 ovarian): 0.957 µM
- GI50 (MALME-3M melanoma): 5.32 µM
- TGI (MALME-3M melanoma): 11 µM
- GI50 (MOLT-4 leukemia): 4.38 µM
- TGI (MOLT-4 leukemia): > 28.6 µM
- GI50 (LOX IMVI melanoma): 1.71 µM
- TGI (LOX IMVI melanoma): 6.16 µM
- GI50 (EKVX NSCLC): 5 µM
- TGI (EKVX NSCLC): 40.2 µM

SMILES: C=CC(=O)Nc1cccc(Oc2nc(Nc3ccc(N4CCN(C)CC4)cc3)nc3ccsc23)c1
- GI50 (HCC-2998 colon): 14.8 µM
- TGI (HCC-2998 colon): > 10 µM and 32.3 µM
- GI50 (NCI-H460 lung): 3.26 µM and 3.19 µM
- TGI (NCI-H460 lung): > 10 µM and 12.6 µM
- GI50 (COLO 205 colon): 2.19 µM
- TGI (COLO 205 colon): 5.27 µM
- GI50 (MDA-MB-435): 1.71 µM and 1.93 µM
- TGI (MDA-MB-435): 3.69 µM and 4.12 µM
- GI50 (RXF 393 renal): 1.54 µM
- TGI (RXF 393 renal): 3.31 µM and 4.26 µM
- GI50 (OVCAR-8 ovarian): 3.59 µM and 3.63 µM
- TGI (OVCAR-8 ovarian): > 10 µM and 11.7 µM
- GI50 (MALME-3M melanoma): 1.63 µM and 1.83 µM
- TGI (MALME-3M melanoma): 3.14 µM and 3.66 µM
- GI50 (MOLT-4 leukemia): 2.53 µM and 1.72 µM
- TGI (MOLT-4 leukemia): 7.08 µM and 5.53 µM
- GI50 (LOX IMVI melanoma): 1.69 µM and 1.75 µM
- TGI (LOX IMVI melanoma): 3.09 µM and 3.33 µM
- GI50 (EKVX NSCLC): 1.55 µM and 2.39 µM
- TGI (EKVX NSCLC): > 10 µM and 16.7 µM
